According to US9546164B2 (GENENTECH, INC., priority 2013, dated 2017):
Where a name gives a salt, the structure may show the parent alone. Read-outs that look alike come from different tables or passages of the source.

Target: hNav1.7 (Homo sapiens (Human), UniProt Q15858)
Experiment: Tritiated sulfonamide competitive binding to membranes from cells expressing hNav1.7 and the β1 subunit;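 also: Filter-bound radioactivity counted by liquid scintillation, nonspecific binding defined with excess unlabelled ligand, IC50 fitted to percent inhibition of specific binding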
[1] = read-out: Ligand Binding Assay, 100 pM [3H]compound, membranes with hNav1.7 and β1 subunit, 18 h, room temperature

Chain of hNav1.7 (Q15858 other isoform, or with tags, fused parts or gaps): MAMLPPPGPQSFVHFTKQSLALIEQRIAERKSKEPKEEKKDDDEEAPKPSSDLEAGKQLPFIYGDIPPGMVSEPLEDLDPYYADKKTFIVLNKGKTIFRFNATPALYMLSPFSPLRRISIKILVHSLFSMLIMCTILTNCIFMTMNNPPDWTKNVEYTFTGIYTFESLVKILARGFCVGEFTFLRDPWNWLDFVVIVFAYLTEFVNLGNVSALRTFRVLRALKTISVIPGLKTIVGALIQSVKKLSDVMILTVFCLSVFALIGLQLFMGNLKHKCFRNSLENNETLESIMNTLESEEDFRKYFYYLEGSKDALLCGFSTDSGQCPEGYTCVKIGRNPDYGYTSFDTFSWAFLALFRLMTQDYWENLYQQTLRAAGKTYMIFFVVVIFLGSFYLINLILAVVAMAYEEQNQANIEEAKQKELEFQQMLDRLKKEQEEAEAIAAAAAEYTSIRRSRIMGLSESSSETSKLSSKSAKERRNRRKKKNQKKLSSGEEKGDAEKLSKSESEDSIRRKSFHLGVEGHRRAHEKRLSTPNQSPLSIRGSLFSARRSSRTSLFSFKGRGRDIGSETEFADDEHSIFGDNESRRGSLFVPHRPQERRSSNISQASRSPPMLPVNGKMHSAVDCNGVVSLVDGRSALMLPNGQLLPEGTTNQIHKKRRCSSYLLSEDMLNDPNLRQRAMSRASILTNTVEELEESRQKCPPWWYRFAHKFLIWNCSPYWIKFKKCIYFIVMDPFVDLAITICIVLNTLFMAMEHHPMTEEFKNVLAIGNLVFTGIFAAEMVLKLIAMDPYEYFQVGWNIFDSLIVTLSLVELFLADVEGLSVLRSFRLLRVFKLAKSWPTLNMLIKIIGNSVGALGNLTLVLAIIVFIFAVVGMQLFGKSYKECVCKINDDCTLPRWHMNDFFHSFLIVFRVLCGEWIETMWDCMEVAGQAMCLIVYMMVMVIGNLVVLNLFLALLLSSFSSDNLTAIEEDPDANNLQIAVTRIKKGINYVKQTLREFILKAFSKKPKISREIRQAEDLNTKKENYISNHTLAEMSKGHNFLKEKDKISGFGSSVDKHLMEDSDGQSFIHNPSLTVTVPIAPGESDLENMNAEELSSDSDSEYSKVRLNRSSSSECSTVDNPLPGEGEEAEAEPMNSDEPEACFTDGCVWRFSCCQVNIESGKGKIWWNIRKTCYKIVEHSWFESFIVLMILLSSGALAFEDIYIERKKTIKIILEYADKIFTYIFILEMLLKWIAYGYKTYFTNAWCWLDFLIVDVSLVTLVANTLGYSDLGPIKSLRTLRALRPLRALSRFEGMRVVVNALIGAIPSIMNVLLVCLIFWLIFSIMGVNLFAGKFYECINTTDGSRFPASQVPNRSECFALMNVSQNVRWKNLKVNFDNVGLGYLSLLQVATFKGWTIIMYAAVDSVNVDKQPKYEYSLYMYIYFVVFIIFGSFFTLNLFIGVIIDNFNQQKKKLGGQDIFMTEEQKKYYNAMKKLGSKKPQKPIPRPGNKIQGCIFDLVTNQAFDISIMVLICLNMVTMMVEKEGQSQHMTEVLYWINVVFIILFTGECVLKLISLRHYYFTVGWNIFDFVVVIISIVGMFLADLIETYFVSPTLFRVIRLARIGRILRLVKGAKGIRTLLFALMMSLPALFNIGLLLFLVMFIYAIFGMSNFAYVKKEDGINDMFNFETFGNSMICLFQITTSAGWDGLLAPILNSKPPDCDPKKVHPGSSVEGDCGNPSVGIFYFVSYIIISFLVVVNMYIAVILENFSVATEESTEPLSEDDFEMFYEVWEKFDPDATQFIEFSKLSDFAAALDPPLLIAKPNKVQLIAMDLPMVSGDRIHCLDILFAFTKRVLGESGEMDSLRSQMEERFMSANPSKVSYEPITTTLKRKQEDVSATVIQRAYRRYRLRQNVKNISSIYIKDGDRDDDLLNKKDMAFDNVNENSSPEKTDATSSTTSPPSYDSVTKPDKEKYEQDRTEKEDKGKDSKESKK
Chain of hNav1.7 (Q07699 19-218 partner): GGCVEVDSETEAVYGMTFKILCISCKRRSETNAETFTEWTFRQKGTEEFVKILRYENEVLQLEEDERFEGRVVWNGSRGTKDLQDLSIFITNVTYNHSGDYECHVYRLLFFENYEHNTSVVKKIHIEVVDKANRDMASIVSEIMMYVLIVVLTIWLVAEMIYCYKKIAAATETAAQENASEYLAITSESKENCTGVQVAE
Protocol: Tritiated Sulfonamide Binding to Membranes
Preparation of membranes containing recombinantly expressed sodium channels: Frozen recombinant cell pellets were thawed on ice and diluted to 4 times the cell pellet weight with ice cold 50 mM TrisHCl, pH 7.4 buffer. The cell suspensions were homogenized on ice using a motorized glass douncehomogeniser. Homogenates were further diluted 8.4 times with ice cold 50 mM TrisHCl, pH 7.4 buffer and then centrifuged at 200×g at 4° C. for 15 min. The supersatants were collected and centrifuged at 10000×g at 4° C. for 50 min. The pellets were then re-suspended in 100 mMNaCl, 20 mM TrisHCl, pH. 7.4 buffer containing 1% v/v protease inhibitors (Calbiochem) and re-homogenized on ice. The homogenized membranes were then processed through a syringe equipped with a 26 gauge needle. Protein concentrations were determined by Bradford Assay and the membranes were stored at −80° C.
Radioligand Binding Studies: Saturation experiments. A representative compound of formula (I) having a methyl group was tritiated. Three tritiums were incorporated in place of methyl hydrogens to generate [^3H]compound. Binding of this radioligand was preformed in 5 mL borosilicate glass test tubes at room temperature. Binding was initiated by adding membranes to increasing concentrations of [^3H]compound in 100 mM NaCl, 20 mM TrisHCl, pH 7.4 buffer containing 0.01% w/v bovine serum albumin (BSA) for 18 h. Non-specific binding was determined in the presence of 1 μM unlabelled compound. After 18 h, the reactants were filtered through GF/C glass fiber filters presoaked in 0.5% w/v polyethylene imine. Filters were washed with 15 mL ice cold 100 mM NaCl, 20 mM TrisHCl, pH7.4 buffer containing 0.25% BSA to separate bound from free ligand. [^3H]compound bound to filters was quantified by liquid scintillation counting.
Competitive binding experiments: Binding reactions were preformed its 96-well polypropylene plates at room temperature for 18 h. In 360 μL, membranes were incubated with 100 pM [^3H]compound and increasing concentrations of Test Compound. Non-specific binding was defined in the presence of 1 μM unlabelled compound. Reactions were transferred and filtered through 96-well glass fiber/C filter plates presoaked with 0.5% polyethylene imine. The filtered reactions were washed 5 times with 200 μL ice cold butter containing 0.25% BSA. Bound radioactivity was determined by liquid scintillation counting.
Data Analysis: For saturation experiments, non-specific binding was subtracted from total binding to provide specific binding and these values were recalculated in terms of pmol ligand bound per mg protein. Saturation curves were constructed and dissociation constants were calculated using the single site ligand binding model: Beq=(Bmax*X)/(X+KD), where Beq is the amount of ligand bound at equilibrium, Bmax is the maximum receptor density, Kd is the dissociation constant for the ligand, and X is the tree ligand concentration. For competition studies percent inhibition was determined and IC50 values were calculated using a 4 parameter logistic model (% inhibition=(A+((B−A)/(1+((x/C)^D)))) using XLfit, where A and B are the maximal and minimum inhibition respectively, C is the IC50 concentration and D is the (Hill) slope.

Row | IC50 [1] [nM] | Molecule | other results
1 | 52 | O=C(NS(=O)(=O)C1CC1)c1cc(C2CC2)c(OCC2CCN(CCC(F)(F)F)CC2)cc1F [Example 193, 5-Cyclopropyl-N-(cyclopropylsulfonyl)-2-fluoro-4-((1-(3,3,3-trifluoropropyl)piperidin-4-yl)methoxy)benzamide] | –
2 | 3.1 | CC1(COc2cc(F)c(C(=O)NS(=O)(=O)N3CCC3)cc2C2CC2)CN(C(c2ccccc2)c2ccccc2)C1 [Example 71, N-(azetidin-1-ylsulfonyl)-4-((1-benzhydryl-3-methylazetidin-3-yl)methoxy)-5-cyclopropyl-2-fluorobenzamide] | –
3 | – | O=C(NS(=O)(=O)C1CC1)c1cc(C2CC2)c(CN2CCC(Oc3ccc(F)cc3Cl)CC2)cc1F [Example 507, trifluoroacetic acid salt] | IC50 (read-out: Ligand Binding Assay, 100 pM [3H]compound, membranes with hNav1.7 and β1 subunit, 18 h, room temperature, trifluoroacetic acid salt): 81.7 nM
4 | – | O=C(NS(=O)(=O)C1CC1)c1cc(C2CC2)c(CN2CCC(Oc3ccc(Cl)c(Cl)c3)CC2)cc1F [Example 510, 5-cyclopropyl-N-(cyclopropylsulfonyl)-4-((4-(3,4-dichlorophenoxy)piperidin-1-yl)methyl)-2-fluorobenzamide, trifluoroacetic acid salt] | IC50: 9.1 nM
5 | 1300 | CS(=O)(=O)NC(=O)c1cc(C2CC2)c(OCC2CN(Cc3cccc(F)c3)C2)cc1F [Example 73, 5-cyclopropyl-2-fluoro-4-((1-(3-fluorobenzyl)azetidin-3-yl)methoxy)-N-(methylsulfonyl)benzamide] | –
6 | 7.6 | CC1(COc2cc(F)c(C(=O)NS(C)(=O)=O)cc2C2CC2)CCN(C2(c3cc(Cl)cc(Cl)c3)COC2)CC1 [Example 178, 5-Cyclopropyl-4-((1-(3-(3,5-dichlorophenyl)oxetan-3-yl)-4-methylpiperidin-4-yl)methoxy)-2-fluoro-N-(methylsulfonyl)benzamide] | –
7 | 65 | O=C(NS(=O)(=O)C1CC1)c1cc(C2CC2)c(OCC2CCN(C(=O)c3ccc(Cl)cc3Cl)CC2)cc1F [Example 258, 5-Cyclopropyl-N-(cyclopropylsulfonyl)-4-((1-(2,4-dichlorobenzoyl)piperidin-4-yl)methoxy)-2-fluorobenzamide] | –
8 | 3.9 | CS(=O)(=O)NC(=O)c1cc(C2CC2)c(O[C@@H]2CCCN(Cc3cc(C(F)(F)F)cc(C4CC4)n3)C2)cc1F [Example 305, (R)-5-cyclopropyl-4-((1-((6-cyclopropyl-4-(trifluoromethyl)pyridin-2-yl)methyl)piperidin-3-yl)oxy)-2-fluoro-N-(methylsulfonyl)benzamide] | –
9 | – | O=C(NS(=O)(=O)C1CC1)c1cc(C2CC2)c(CN2CCC(Oc3ncc(C(F)(F)F)cc3Cl)CC2)cc1F [Example 524, 4-((4-((3-chloro-5-(trifluoromethyl)pyridin-2-yl)oxy)piperidin-1-yl)methyl)-5-cyclopropyl-N-(cyclopropylsulfonyl)-2-fluorobenzamide, trifluoroacetic acid salt] | IC50: 11.4 nM
10 | 49.2 | CS(=O)(=O)NC(=O)c1cc(C2CC2)c(OCC2CCN(S(=O)(=O)c3ccc(C(F)(F)F)cc3)CC2)cc1F [Example 372, 5-cyclopropyl-2-fluoro-N-(methylsulfonyl)-4-((1-((4-(trifluoromethyl)phenyl)sulfonyl)piperidin-4-yl)methoxy)benzamide] | –
11 | – | C[C@H](c1cc(Cl)cc(Cl)c1)N1CCN(Cc2cc(F)c(C(=O)NS(=O)(=O)C3CC3)cc2C2CC2)C[C@@H]1C [Example 566, 5-cyclopropyl-N-(cyclopropylsulfonyl)-4-(((S)-4-((R)-1-(3,5-dichlorophenyl)ethyl)-3-methylpiperazin-1-yl)methyl)-2-fluorobenzamide] | IC50: 2.7 nM
12 | 91 | CS(=O)(=O)NC(=O)c1cc(C2CC2)c(OCC2(F)CN(Cc3ccccc3)C2)cc1F [Example 66, 4-((1-benzyl-3-fluoroazetidin-3-yl)methoxy)-5-cyclopropyl-2-fluoro-N-(methylsulfonyl)benzamide] | –
13 | 4.9 | CS(=O)(=O)NC(=O)c1cc(C2CC2)c(OCC2CCN(Cc3cc(Cl)cc(Cl)c3)CC2)cc1F [Example 139, 5-Cyclopropyl-4-((1-(3,5-dichlorobenzyl)piperidin-4-yl)methoxy)-2-fluoro-N-(methylsulfonyl)benzamide] | –
14 | – | O=C(NS(=O)(=O)C1CC1)c1cc(C2CC2)c(O[C@@H]2CCCN(C(c3ccccc3)c3ccccc3)C2)cc1F [Example 16, (R)-4-((1-benzhydrylpiperidin-3-yl)oxy)-5-cyclopropyl-N-(cyclopropylsulfonyl)-2-fluorobenzamide] | IC50: 3.4 nM
15 | 5 | O=C(NS(=O)(=O)C1CC1)c1cc(C2CC2)c(CN2CCO[C@H](Cc3ccc(Cl)c(Cl)c3)C2)cc1F [Example 460, (R)-5-cyclopropyl-N-(cyclopropylsulfonyl)-4-((2-(3,4-dichlorobenzyl)morpholino)methyl)-2-fluorobenzamide] | –
16 | 2.02 | CCC(c1cc(Cl)cc(Cl)c1)N1CCC(COc2cc(F)c(C(=O)NS(C)(=O)=O)cc2C2CC2)CC1 (stereo not drawn) [Example 155, 5-Cyclopropyl-4-((1-(1-(3,5-dichlorophenyl)propyl)piperidin-4-yl)methoxy)-2-fluoro-N-(methylsulfonyl)benzamide] | –
17 | 270 | COc1cccc(CN2CCC(C)(COc3cc(F)c(C(=O)NS(C)(=O)=O)cc3C3CC3)CC2)n1 [Example 576] | –
18 | – | O=C(NS(=O)(=O)N1CCC1)c1cc(C2CC2)c(O[C@@H]2CCCN(Cc3ccc(Cl)c(Cl)c3)C2)cc1F [Example 19, (R)—N-(azetidin-1-ylsulfonyl)-5-cyclopropyl-4-((1-(3,4-dichlorobenzyl)piperidin-3-yl)oxy)-2-fluorobenzamide] | IC50: 4.9 nM
19 | 2.9 | CS(=O)(=O)NC(=O)c1cc(C2CC2)c(O[C@@H]2CCCN(Cc3cc(C(F)(F)F)cc(Cl)c3F)C2)cc1F [Example 311, (R)-4-((1-(3-chloro-2-fluoro-5-(trifluoromethyl)benzyl)piperidin-3-yl)oxy)-5-cyclopropyl-2-fluoro-N-(methylsulfonyl)benzamide] | –
20 | – | C[C@H]1CN(Cc2cc(F)c(C(=O)NS(=O)(=O)C3CC3)cc2C2CC2)CCN1[C@@H](C)c1cc(Cl)cc(Cl)c1 [Example 568, 5-cyclopropyl-N-(cyclopropylsulfonyl)-4-(((S)-4-((S)-1-(3,5-dichlorophenyl)ethyl)-3-methylpiperazin-1-yl)methyl)-2-fluorobenzamide] | IC50: 9.5 nM
21 | 1.9 | C[C@@H]1CC[C@@H](Oc2cc(F)c(C(=O)NS(=O)(=O)N3CCC3)cc2C2CC2)CN1Cc1ccc(F)cc1Cl [Example 322, N-(azetidin-1-ylsulfonyl)-4-(((3R,6R)-1-(2-chloro-4-fluorobenzyl)-6-methylpiperidin-3-yl)oxy)-5-cyclopropyl-2-fluorobenzamide] | –
22 | 5.24 | CC(c1cc(Cl)cc(Cl)c1)N1CCC(COc2cc(F)c(C(=O)NS(=O)(=O)N3CCC3)cc2C2CC2)CC1 (stereo not drawn) [Example 103, N-(Azetidin-1-ylsulfonyl)-5-cyclopropyl-4-((1-(1-(3,5-dichlorophenyl)-ethyl)piperidin-4-yl)methoxy)-2-fluorobenzamide] | –
23 | 6 | COC[C@@H](c1cc(Cl)cc(Cl)c1)N1CCC[C@@H](Oc2cc(F)c(C(=O)NS(C)(=O)=O)cc2C2CC2)C1 [Example 447, 5-cyclopropyl-4-(((R)-1-((R)-1-(3,5-dichlorophenyl)-2-methoxyethyl)piperidin-3-yl)oxy)-2-fluoro-N-(methylsulfonyl)benzamide] | –
24 | 5.4 | 5-cyclopropyl-2-fluoro-N-(methylsulfonyl)-4-((1-(6-(trifluoromethyl)pyridin-2-yl)piperidin-4-yl)methoxy)benzamide [Example 592] | –
